Data taken from ChEMBL document CHEMBL1201862, “PubChem BioAssay data set” (2004).
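Dose response: 5 concentrations. Exposure: 48 h. Format: 96-well plates. Endpoint: linear interpolation; highest concentration if not reached. Here, GI50 denotes the concentration required for 50% inhibition of growth.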 Active and inactive are the calls of the source. Rule as the data show it: active = GI50 up to about 1.1 µM and inactive = higher.

Legend:
Experiment in all cases: DTP human tumour cell line panel, 48 h
A498 = test system: A498
A549 = test system: A549
CAKI-1 = test system: CAKI-1
HCT-116 = test system: HCT-116
HCT-15 = test system: HCT-15
HOP-62 = test system: HOP-62
Hs-578T = test system: Hs-578T
M14 = test system: M14
MCF7 = test system: MCF7
MDA-MB-435 = test system: MDA-MB-435
NCI-H23 = test system: NCI-H23
NCI-H460 = test system: NCI-H460
PC-3 = test system: PC-3
SF-268 = test system: SF-268
SK-MEL-2 = test system: SK-MEL-2
SW-620 = test system: SW-620
U-251 = test system: U-251
UACC-62 = test system: UACC-62
UO-31 = test system: UO-31
SNB-75 = test system: SNB-75

SMILES | GI50 (A498) | GI50 (A549) | GI50 (CAKI-1) | GI50 (HCT-116) | GI50 (HCT-15) | GI50 (HOP-62) | GI50 (Hs-578T) | GI50 (M14) | GI50 (MCF7) | GI50 (MDA-MB-435) | GI50 (NCI-H23) | GI50 (NCI-H460) | GI50 (PC-3) | GI50 (SF-268) | GI50 (SK-MEL-2) | GI50 (SW-620) | GI50 (U-251) | GI50 (UACC-62) | GI50 (UO-31) | GI50 (SNB-75)
O=C(O)CCCc1ccc2ccccc2c1 | > 100 µM (inactive) | > 100 µM (inactive) | > 100 µM (inactive) | > 100 µM (inactive) | > 100 µM | > 100 µM (inactive) | > 100 µM (inactive) | > 100 µM (inactive) | > 100 µM (inactive) | > 100 µM (inactive) | > 100 µM (inactive) | > 100 µM (inactive) | > 100 µM (inactive) | > 100 µM (inactive) | > 100 µM (inactive) | > 100 µM (inactive) | > 100 µM (inactive) | > 100 µM (inactive) | > 100 µM (inactive) | 
N#CC12C(=O)N=C(N)C1(C#N)C(c1ccco1)NC1=C2CCCC1 (stereo not drawn) | > 100 µM (inactive) | > 100 µM (inactive) | > 100 µM (inactive) | > 100 µM (inactive) | > 100 µM | > 100 µM (inactive) | > 100 µM (inactive) | > 100 µM (inactive) | 75 µM (inactive) | > 100 µM (inactive) | > 100 µM (inactive) | > 100 µM (inactive) | > 100 µM (inactive) | > 100 µM (inactive) | > 100 µM (inactive) | > 100 µM (inactive) | > 100 µM (inactive) | > 100 µM (inactive) | > 100 µM (inactive) | 
COC1=C(OC)C(=O)C(Cc2c(C)nc3sc(C)cn23)=C(C)C1=O | 33 µM (inactive) | 19.5 µM (inactive) | 20.4 µM (inactive) | 19.8 µM (inactive) | 26.1 µM | 18.5 µM (inactive) | 23.9 µM (inactive) | 17 µM (inactive) | 20.5 µM (inactive) | 17.9 µM (inactive) | 15 µM (inactive) | 20 µM (inactive) | 23.4 µM (inactive) | 17.7 µM (inactive) | 17.4 µM (inactive) | 25.5 µM (inactive) | 19.8 µM (inactive) | 14 µM (inactive) | 16.8 µM (inactive) | 
O=C1OC(c2ccc(Cl)cc2)=N/C1=C\c1ccccc1 |  | > 100 µM (inactive) | > 100 µM (inactive) | > 100 µM (inactive) | > 100 µM | > 100 µM (inactive) | > 100 µM (inactive) | > 100 µM (inactive) | > 100 µM (inactive) | > 100 µM (inactive) | > 100 µM (inactive) | > 100 µM (inactive) | > 100 µM (inactive) | > 100 µM (inactive) | > 100 µM (inactive) | > 100 µM (inactive) | > 100 µM (inactive) | > 100 µM (inactive) | > 100 µM (inactive) | > 100 µM (inactive)
N[C@@H](CCC(=O)NCP(=O)(O)O)C(=O)O | > 100 µM (inactive) | > 100 µM (inactive) |  | > 100 µM (inactive) | > 100 µM | > 100 µM (inactive) | > 100 µM (inactive) |  | > 100 µM (inactive) | > 100 µM (inactive) | > 100 µM (inactive) | > 100 µM (inactive) | > 100 µM (inactive) |  | > 100 µM (inactive) | > 100 µM (inactive) | > 100 µM (inactive) | > 100 µM (inactive) | > 100 µM (inactive) | 
CC(=O)C(I(OS(=O)(=O)c1ccc(C)cc1)c1ccccc1)=P(c1ccccc1)(c1ccccc1)c1ccccc1 | > 100 µM (inactive) | 24.4 µM (inactive) | > 100 µM (inactive) | 21.2 µM (inactive) | > 100 µM | 23.3 µM (inactive) | 23 µM (inactive) | 22.1 µM (inactive) | 35.8 µM (inactive) | 15.8 µM (inactive) | 18.1 µM (inactive) | 58.5 µM (inactive) | 26.5 µM (inactive) | 23.7 µM (inactive) | 16 µM (inactive) |  | 29.2 µM (inactive) | 1.06 µM (active) | > 100 µM (inactive) | 
CCOC(=O)c1c(O)nc2cccc3c2c1-c1cccnc1S3 |  | 18.9 µM (inactive) | 16.7 µM (inactive) | 44.5 µM (inactive) | 35.8 µM | 25.5 µM (inactive) | 22.4 µM (inactive) | 32.7 µM (inactive) | 1.14 µM (inactive) | 28.8 µM (inactive) | 21 µM (inactive) | 24.4 µM (inactive) | 15.8 µM (inactive) | 28.8 µM (inactive) | 56.1 µM (inactive) | 55.3 µM (inactive) | 21.3 µM (inactive) | 16.3 µM (inactive) | 23 µM (inactive) | 21.2 µM (inactive)
CN1CCN(C(=S)N2CCN(C)CC2)CC1 | 5.62 µM (inactive) | > 100 µM (inactive) | > 100 µM (inactive) | > 100 µM (inactive) |  | > 100 µM (inactive) | > 100 µM (inactive) | > 48.1 µM (inactive) | 1.08 µM (active) | > 100 µM (inactive) | > 32.1 µM (inactive) | 5.35 µM (inactive) | > 29.8 µM (inactive) | > 100 µM (inactive) | > 100 µM (inactive) | > 30.8 µM (inactive) | > 100 µM (inactive) | 4.85 µM (inactive) | > 100 µM (inactive) | 
CC(OC(C)(C)C)[C@H](NC(=O)OC(C)(C)C)C(=O)O (stereo partly drawn) | > 100 µM (inactive) | > 100 µM (inactive) | > 100 µM (inactive) | > 100 µM (inactive) | > 100 µM | > 100 µM (inactive) | > 100 µM (inactive) | > 100 µM (inactive) | > 100 µM (inactive) | > 100 µM (inactive) | > 100 µM (inactive) | > 100 µM (inactive) | > 100 µM (inactive) | > 100 µM (inactive) |  | > 100 µM (inactive) | > 100 µM (inactive) | > 100 µM (inactive) | > 100 µM (inactive) | 
COC(=O)c1cc(C(=CCC[C@H]2CC[C@@]3(C)C(CCC4C3CC[C@@]3(C)C4CC[C@@H]3C(C)CCCC(C)C)C2)c2cc(Cl)c(OC(=O)c3ccccc3)c(C(=O)OC)c2)cc(Cl)c1OC(=O)c1ccccc1 (stereo partly drawn) |  | > 10 µM (inactive) | > 10 µM (inactive) | > 10 µM (inactive) | > 10 µM | > 10 µM (inactive) | > 10 µM (inactive) | > 10 µM (inactive) | > 10 µM (inactive) | > 10 µM (inactive) | > 10 µM (inactive) | > 10 µM (inactive) | > 10 µM (inactive) | > 10 µM (inactive) | > 10 µM (inactive) | > 10 µM (inactive) | > 10 µM (inactive) | > 10 µM (inactive) | > 10 µM (inactive) | > 10 µM (inactive)
COc1cc(NS(C)(=O)=O)ccc1Nc1c2ccccc2nc2ccccc12 [AMSACRINE] |  | 0.049 µM (active) | 0.0973 µM (active) | 0.955 µM (active) | 0.716 µM | 0.084 µM (active) | 1.79 µM (inactive) | 0.266 µM (active) | 0.103 µM (active) | 4.54 µM (inactive) | 0.152 µM (active) | 0.028 µM (active) | 0.415 µM (active) | 0.415 µM (active) | 3.7 µM (inactive) | 0.561 µM (active) | 0.166 µM (active) | 0.285 µM (active) | 0.661 µM (active) | 0.403 µM (active)
